Measured values as given in article PMC12374030, “Hydroxyalkyne–Bithiophene Derivatives: Synthesis and Antileishmanial Activity” (Chemical Biology & Drug Design, 2025).
*1 amine or outer side, *2 acyl side, *3 side chain or, on linkers, in order; H or OH if unused. Where a SMILES comes first, the peptide text is derived from it. Bridges are numbered along the chain shown (N, C = ends). Roman numbers before positions name the chains, in order. [ ]: non-standard residue; d: D form. Actinocin(9to1) = Cc1c2oc3c(C)ccc(C(=O)[*:1])c3nc-2c(C(=O)[*:2])c(N)c1=O; NMeV = CN[C@H](C(=O)O)C(C)C; Sar = CNCC(=O)O

What was measured:
[1] = tested on: L. amazonensis promastigotes; experiment: Cell size (FSC-H, flow cytometry); format: cell-based, Leishmania amazonensis; design: reduction in cell size: dose or concentration left out as unconfirmed; details: positive control, 24 h
Experimental: Promastigotes at 1 × 10^6 parasites mL^−1 treated with BT‐1 for 24 h were washed twice and resuspended in phosphate‐buffered saline (PBS), then analyzed using a FACSCalibur flow cytometer (BD Biosciences, Franklin Lakes, NJ, USA) equipped with CellQuest software. As a positive control, […] actinomycin D was used. A total of 10,000 events were acquired in the region that corresponded to the parasites. Histograms were generated for each sample, where the forward light scatter (FSC‐H) represents the cell volume (Lazarin‐Bidóia et al. [2013]).

[2] = tested on: L. amazonensis promastigotes; experiment: Mitochondrial membrane potential (Rh123, flow cytometry); format: cell-based, Leishmania amazonensis; details: 24 h
Experimental: Promastigotes at 1 × 10^6 parasites mL^−1 treated with BT‐1 for 24 h were incubated with 5 μg mL^−1 Rh123, a fluorescent probe that accumulates in mitochondria, for 15 min (Menna‐Barreto, Corrêa, et al. [2009]; Menna‐Barreto, Goncalves, et al. [2009]). As a positive control, 100 μM CCCP was used. The data acquisition and analysis were performed using a FACSCalibur flow cytometer (BD Biosciences, Franklin Lakes, NJ, USA) equipped with CellQuest software. A total of 10,000 events were acquired in the region corresponding to the parasites.

[3] = tested on: L. amazonensis promastigote forms; experiment: Antiproliferative assay (XTT); format: cell-based, Leishmania amazonensis; details: for IC50: Leishmania amazonensis, 72 h, 25°C, XTT, read-out: L. amazonensis (promastigotes) IC50; for Selectivity index (SI): ratio between the CC50 (J774A.1 macrophages) and IC50 (promastigotes)
Experimental: L. amazonensis MHOM/BR/75/Josefa strain was originally isolated from a human case of CL by Dr. […]. Cuba at the University of Brasilia, Brazil (Saraiva et al. [1983]; Cuba et al. [1985]). […] The activity against promastigotes was evaluated by XTT (0.5 mg mL^-1), as previously described (Meshulam et al. [1995]). Absorbance was read in a microplate spectrophotometer (PowerWave XS; BioTek, Winooski, VT, USA) at 450 nm.

[4] = Cytotoxicity assay in macrophages (MTT); format: cell-based; details: mouse, J774A.1 macrophages, pH 7.2
Experimental: L. amazonensis MHOM/BR/75/Josefa strain was originally isolated from a human case of CL by Dr. Cesar A. Cuba at the University of Brasilia, Brazil (Saraiva et al. [1983]; Cuba et al. [1985]). Promastigote forms of this strain were maintained axenically in Warren's medium (brain–heart infusion plus hemin and folic acid; pH 7.2) supplemented with 10% heat‐inactivated FBS and maintained at 25°C. J774A.1 macrophages (obtained from the Cell Bank of Rio de Janeiro, RJ, Brazil) were maintained in RPMI‐1640 medium (pH 7.2), supplemented with sodium bicarbonate, L‐glutamine, 10% FBS, and streptomycin and penicillin at 37°C in a 5% CO2 atmosphere.
Cytotoxicity was evaluated in the J774A.1 macrophages. Macrophages (5 × 10^5 cells mL^−1) were cultured in 96‐well microplates containing RPMI‐1640 medium supplemented with 10% FBS. The plates were incubated at 37°C in a 5% CO2 atmosphere for confluent growth of the cells. After 24 h, the compounds were added to each well at increasing concentrations (31.25–1000 μM) and incubated for 48 h at 37°C in a 5% CO2 atmosphere. The cytotoxicity was evaluated by MTT (2 mg mL^−1), as previously described (Mosmann [1983]). Absorbance was read in a microplate spectrophotometer (PowerWave XS; BioTek, […], VT, USA) at 570 nm.

[5] = tested on: L. amazonensis promastigotes; experiment: Lipid peroxidation assay (DPPP); format: cell-based, Leishmania amazonensis; details: positive control, 50 μM
Experimental: Promastigotes at 1 × 10^6 parasites mL^−1 treated with BT‐1 for 24 h were incubated with 50 μM DPPP for 15 min at 22°C. As a positive control, 50 μM H2O2 was used. The fluorescence was determined in a Victor X3 spectrofluorimeter (PerkinElmer, Waltham, MA, USA) at λex of 355 nm and λem of 460 nm. DPPP is essentially nonfluorescent until it is oxidized to a phosphine oxide (DPPP‐O) by peroxides (Okimoto et al. [2000]).

[6] = tested on: L. amazonensis promastigotes; experiment: Reactive oxygen species production (H2DCFDA); format: cell-based, Leishmania amazonensis; details: positive control, 50 μM
Experimental: Promastigotes at 1 × 10^6 parasites mL^−1 treated with BT‐1 for 24 h were incubated with 10 μM H2DCFDA in the dark for 45 min. As a positive control, 50 μM H2O2 was used. The fluorescence was determined by oxidation of H2DCFDA to the fluorescent product, 2′‐7ʹ dichlorofluorescein (DCF), which was measured in a Victor X3 spectrofluorimeter (PerkinElmer, Waltham, MA, USA) at λex of 488 nm and λem of 530 nm (Shukla et al. [2012]).

[7] = tested on: L. amazonensis promastigotes; experiment: Cell membrane integrity (PI, flow cytometry); format: cell-based, Leishmania amazonensis; details: positive control, 40 μM, 5 min
Experimental: Promastigotes at 1 × 10^6 parasites mL^−1 treated with BT‐1 for 24 h were incubated with 0.2 μg mL^−1 PI for 10 min. As a positive control, 40 μM digitonin was used. The data acquisition and analysis were performed using a FACSCalibur flow cytometer (BD Biosciences, Franklin Lakes, NJ, USA) equipped with CellQuest software. A total of 10,000 events were acquired in the region that corresponded to the parasites. Alterations in PI fluorescence were quantified as the percentage increase in fluorescence compared with the untreated parasites (Lazarin‐Bidóia et al. [2013]).

[8] = tested on: L. amazonensis promastigotes; experiment: Cell cycle (PI-RNAse A, flow cytometry); format: cell-based, Leishmania amazonensis; details: positive control, 40 μM, 24 h
Experimental: Promastigotes at 1 × 10^6 parasites mL^−1 treated with BT‐1 for 24 h were fixed in 70% cold methanol in PBS at 4°C for 2 h. Afterward, the parasites were washed in PBS, 10 μg mL^−1 PI‐RNAse A was added, and the samples were incubated at 37°C for 45 min. The data acquisition and analysis were performed using a FACSCalibur flow cytometer (BD Biosciences, Franklin Lakes, NJ, USA) equipped with CellQuest software. A total of 10,000 events were acquired in the region that corresponded to the parasites. As a positive control, 40 μM miltefosine was used. The percentages of cells in each stage of the cell cycle were determined based on the intensity of the PI fluorescence, which is directly proportional to the DNA content.

Structure (SMILES) | IC50 [3] | Selectivity index (SI) [3] | CC50 at 48 h [4] | further results
Cc1c2oc3c(C)ccc(C(=O)N[C@@H]4C(=O)N[C@H](C(C)C)C(=O)N5CCC[C@H]5C(=O)N(C)CC(=O)N(C)[C@@H](C(C)C)C(=O)O[C@@H]4C)c3nc-2c(C(=O)N[C@@H]2C(=O)N[C@H](C(C)C)C(=O)N3CCC[C@H]3C(=O)N(C)CC(=O)N(C)[C@@H](C(C)C)C(=O)O[C@@H]2C)c(N)c1=O [Actinomycin D, reference compound] (I: T[dV]P[Sar][NMeV] / II: T[dV]P[Sar][NMeV]; ester I:1-I:C, II:1-II:C; linker I:N-II:N via Actinocin(9to1)) |  |  |  | reduction in cell size [1]: 2.05 fold
N#CC(C#N)=NNc1cccc(Cl)c1 [CCCP, carbonyl cyanide m‐chlorophenylhydrazone, reference compound] |  |  |  | Mitochondrial potential: Average (Median) ([2]; positive control 100 μM, Rh123 fluorescence): 6.38; reduction in the mitochondrial membrane potential ([2]; positive control, 100 μM): 342.8 fold
O=Cc1ccc(-c2ccc(C#CCCO)s2)s1 [Compound 2, 5′‐(4‐hydroxy‐but‐1‐ynyl)‐[2,2′]bithiophenyl‐5‐carbaldehyde] | 25.1 ± 0.8 µM | 7.90 | 198 ± 3.9 µM | 
CC(C)(O)C#Cc1ccc(-c2ccc(C=O)s2)s1 [Compound 3, 5′‐(3‐hydroxy‐3‐methyl‐but‐1‐ynyl)‐[2,2′]bithiophenyl‐5‐carbaldehyde] | 94 ± 4.2 µM | 3.00 | 283 ± 6.7 µM | 
OO [Compound H2O2, reference compound] |  |  |  | increase in lipoperoxidation [5]: 3.6 fold; increase in the production of ROS [6]: 3.5 fold
C[C@@H]1CC[C@@]2(OC1)O[C@H]1[C@@H](O)[C@H]3[C@@H]4CC[C@H]5C[C@@H](O[C@@H]6O[C@H](CO)[C@H](O[C@@H]7O[C@H](CO)[C@@H](O)[C@H](O[C@@H]8OC[C@@H](O)[C@H](O)[C@H]8O)[C@H]7O[C@@H]7O[C@H](CO)[C@H](O)[C@H](O[C@@H]8O[C@H](CO)[C@@H](O)[C@H](O)[C@H]8O)[C@H]7O)[C@H](O)[C@H]6O)[C@H](O)C[C@]5(C)[C@H]4CC[C@]3(C)[C@H]1[C@@H]2C [Digitonin, digitonin, reference compound] |  |  |  | increase of PI-stained cells [7]: 3.10 fold
CCCCCCCCCCCCCCCCOP(=O)([O-])OCC[N+](C)(C)C [Miltefosine, miltefosine, reference compound] |  |  |  | increase of cells in sub-G0 phase compared with the untreated control [8]: 12.33 fold

More lines, main results first:

IC50 [3] | Structure (SMILES) | Selectivity index (SI) [3] | CC50 at 48 h [4] | further results
44.1 ± 2 µM | CC(C)N=Cc1ccc(-c2ccc(C#CCCO)s2)s1 [Compound 2a] | 6.56 | 289 ± 6.5 µM | 
48.5 ± 4.2 µM | CCCCN=Cc1ccc(-c2ccc(C#CCCO)s2)s1 [Compound 2b] | 5.65 | 274 ± 5.2 µM | 
51.2 ± 1.5 µM | OCCC#Cc1ccc(-c2ccc(C=NC3CCCCC3)s2)s1 [Compound 2c] | 5.28 | 271 ± 2.8 µM | 
41.4 ± 0.6 µM | NC(=S)NN=Cc1ccc(-c2ccc(C#CCCO)s2)s1 [Compound 2d] | 5.42 | 224 ± 4.9 µM | 
49.5 ± 3.1 µM | CC(C)N=Cc1ccc(-c2ccc(C#CC(C)(C)O)s2)s1 [Compound 3a] | 5.68 | 281 ± 6.2 µM | 
55.3 ± 5.1 µM | CCCCN=Cc1ccc(-c2ccc(C#CC(C)(C)O)s2)s1 [Compound 3b] | 5.34 | 296 ± 4.1 µM | 
40.1 ± 1.1 µM | CC(C)(O)C#Cc1ccc(-c2ccc(C=NC3CCCCC3)s2)s1 [Compound 3c] | 5.95 | 238.5 ± 1.9 µM | 
39.5 ± 5.1 µM | CC(C)(O)C#Cc1ccc(-c2ccc(/C=N/NC(N)=S)s2)s1 [Compound 3d] | 5.56 | 220 ± 3.8 µM | 
